Source: patent publication US20250000869A1, “TOPICAL COMPOSITIONS OF 2-PHENYL-3, 4-DIHYDROPYRROLO [2, L-F] [1, 2, 4] TRIAZINONE DERIVATIVES AND USES THEREOF” (TOPADUR PHARMA AG, priority 2021, published 2025)
Like-named read-outs stand apart in the source and are kept apart here.

Assays:
[1] = target: PDE5 (Homo sapiens, UniProt O76074); experiment: IC50 of Compound 1 (earlier effected measurements); assay type: biochemical
[2] = tested on: C57Bl/6J mice; experiment: Ulcer core perfusion of full thickness excisional cutaneous wounds by LSCI/LASCA; assay type: in vivo; details: single dose 25 μl per wound, almost all times of measurements
Protocol: Effects of a single dose of Topical Composition A2, Topical Composition A4, and Vehicle Composition A, when administered on the perfusion of the ulcer core of full thickness excisional cutaneous wounds in C57B1/6J mice was investigated. Thus, Topical Compositions A2 and A4 were applied in a dose volume of 25 μl per wound. Each individual mouse had surgery for two wounds located symmetrical to the dorsal midline using 8 mm diameter punch biopsy devices.
Topical Compositions A2 and A4 or Vehicle Composition A were randomly administered to one or the other wound under a blinded protocol. This procedure enabled an intra-individual comparison between Compound 1 and its composition vehicle. Perfusion of the ulcer core as well as of the periulcer region was separately measured by Laser Speckle Contrast Imaging (LSCI)/Laser Speckle Contrast Analysis (LASCA) using a Perimed device. LASCA wound perfusion measurements of digital ulcers in SSc were previously shown to correlate with time to healing (Barsotti S et al Clin Rheumatol. (2020) 39(1):69-75).
In detail, a single application of Topical Compositions A2 and A4 or Vehicle Composition A, each at a volume of 25 μl per wound was randomly administered either to the right or left of two full thickness cutaneous wounds per mouse generated by 8 mm punch biopsies and symmetrically to the dorsal midline, at 24 h after surgery. […]

[3] = Plasma protein binding; assay type: in vitro ADME; details: mouse, mice, read-out: unbound fraction (fu), plasma protein binding
[4] = Solubility of Compound 1 in solvent systems comprising PEG400; assay type: physicochemical; details: room temperature, read-out: Determined Solubility
From the text: A solubility study of Compound 1 in solvent systems comprising PEG400 in various concentrations was effected.

IC50 [1]: 1.18 nM
fraction unbound [3]: 0.0008
solubility ([4]; aqueous with cosolvent or surfactant or cyclodextrin, PEG400:benzyl alcohol:phosphate buffer (44:1:55) vol:vol, Phosphate buffer 12 mmol/L pH 6.7): 0.861 µg/mL
solubility ([4]; aqueous with cosolvent or surfactant or cyclodextrin, PEG400:benzyl alcohol:phosphate buffer (49:1:50) vol:vol, Phosphate buffer 12 mmol/L pH 6.7): 2.18 µg/mL
solubility ([4]; aqueous with cosolvent or surfactant or cyclodextrin, PEG400:benzyl alcohol:phosphate buffer (54:1:45) vol:vol, Phosphate buffer 12 mmol/L pH 6.7): 5 µg/mL
solubility ([4]; aqueous with cosolvent or surfactant or cyclodextrin, PEG400:benzyl alcohol:phosphate buffer (59:1:40) vol:vol, Phosphate buffer 12 mmol/L pH 6.7): 12.8 µg/mL
solubility ([4]; aqueous with cosolvent or surfactant or cyclodextrin, PEG400:benzyl alcohol:phosphate buffer (64:1:35) vol:vol, Phosphate buffer 12 mmol/L pH 6.7): 37 µg/mL
solubility ([4]; aqueous with cosolvent or surfactant or cyclodextrin, PEG400:benzyl alcohol:phosphate buffer (69:1:30) vol:vol, Phosphate buffer 12 mmol/L pH 6.7): 112 µg/mL
solubility ([4]; aqueous with cosolvent or surfactant or cyclodextrin, PEG400:benzyl alcohol:phosphate buffer (79:1:20) vol:vol, Phosphate buffer 12 mmol/L pH 6.7): 882 µg/mL
solubility ([4]; aqueous with cosolvent or surfactant or cyclodextrin, PEG400:benzyl alcohol:phosphate buffer (89:1:10) vol:vol, Phosphate buffer 12 mmol/L pH 6.7): 1770 µg/mL
solubility ([4]; organic solvent or mixture, PEG400:benzyl alcohol (99:1) vol:vol): 12700 µg/mL
SMILES: CCCOc1ccc(S(=O)(=O)N2CCC(CCO[N+](=O)[O-])CC2)cc1-c1nn2c(CCC)c(/C=N/O)c(C)c2c(=O)[nH]1 [Compound 1, 2-[1-(3-{6-[(1E)-(hydroxyimino)methyl]-5-methyl-4-oxo-7-propyl-3H,4H-pyrrolo[2,1-f][1,2,4]triazin-2-yl}-4-propoxybenzenesulfonyl)piperidin-4-yl]ethyl nitrate]
ulcer core perfusion compared to Vehicle Composition A [2]: increases perfusion of ulcer core
